What was measured:
[1] = molecular target: T1, MAT2A homodimer (Homo sapiens, UniProt P31153); experiment: Biochemical assay: inhibition of MAT2A (phosphate release, PiColorLock Gold); conditions: MAT2A IC50 score; read-out: Enzyme Inhibition (Example 275)
T1 construct: inferred from Ni sepharose purification and imidazole elution; made in house; host or cells: Sf9 insect cells, recombinant baculovirus (Bac to Bac, pFASTBAC1)
In short: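 Baculovirus/Sf9-expressed, Ni-purified MAT2A at 4 µg/mL was preincubated with compound for 60 min at 25 °C in 50 mM Tris pH 8.0, 50 mM KCl, 15 mM MgCl2, 0.3 mM EDTA, 0.005% BSA. Substrate mix (500 μM ATP, 400 μM L-methionine) was added and the reaction ran 60 min at 25 °C. Phosphate released stoichiometrically with SAM was measured colorimetrically against a phosphate standard curve.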

[2] = test system: SAM in HCT116 human colon carcinoma cell line engineered to delete the MTAP gene (MTAP −/−); experiment: Cellular assay of target engagement (SAM) by LC-MS/MS; type: cell-based; conditions: Homo sapiens, HCT-116, 72 h, IC50 score, read-out: Cell 72 h SAM Inhibition (MTAP −/−; Example 276)
Method: Measurement of MAT2A activity in cells was made by direct quantitation of the abundance of the product of its enzymatic activity, SAM. Cancer cells were treated with candidate MAT2A inhibitors for a suitable incubation period, and the cells were then lysed using a reagent which quenched any further enzyme activity. Soluble metabolites including SAM were collected and SAM itself was directly measured from the lysate using quantitative LC-MS/MS.
A typical assay was performed using an HCT116 human colon carcinoma cell line which was genetically engineered to delete the MTAP gene (commercially available from Horizon Discovery). This cell line was utilized because it was determined that loss of the MTAP gene predicts sensitivity to MAT2A inhibitors. Cells were plated in 96-well dishes at appropriate cell density. Following 24 hours, cells were then treated with the candidate MAT2A inhibitor. Prior to addition to cells, the compound was first serially diluted in 100% DMSO, typically as a 3-fold serial dilution starting at 500× top dose with 10 dose points including DMSO only control. Compound was then transferred to a working stock plate in cell culture media by adding 5 μl of compound in DMSO to 495 μl of cell culture media. This working stock was then added to cells via a further 5-fold dilution, by adding 25 μl of working stock to 100 μl of cells in culture media. Following compound addition, cells were incubated at 37° C./5% CO2 for 72 hrs.
To quantitate SAM levels following compound treatment, cells were gently washed once in Ammonium Carbonate buffer (75 mM at pH 7.4), placed on dry ice, and lysed with metabolite extraction buffer (80% cold methanol and 20% water (v/v) with acetic acid at 1 M final concentration with 200 ng/mL deuterated d3-SAM as internal control). Following centrifugation at 4° C. at 3,200 rpm for 30 minutes, the supernatant was collected and stored at −80° C. until analysis by Liquid Chromatography with tandem Mass Spectrometry (LC-MS/MS). LC-MS/MS analysis was performed using an API6500 Mass Spectrometer (Sciex, Framingham, Mass., USA) operating in positive ion spray mode and equipped with a Waters UPLC Acquity (Waters, Milford, Mass., USA) BEH Amide column. Multiple Reaction Monitoring data was acquired for SAM and the d3-SAM standard, using a mass transition pair at m/z 399.2→250.1 and 402.2→250.1, respectively. In a typical LC-MS/MS analysis, the initial flow rate was 0.5 ml/min of 25% mobile phase A (acetonitrile and water at 5:95 (v/v) with 1% formic acid and 10 mM ammonium acetate) and 75% mobile phase B (acetonitrile and water at 95:5 (v/v) with 1% formic acid and 10 mM ammonium acetate), 0.2-0.5 minutes with 75%-35% mobile phase B, 25%-65% mobile phase A, at 0.5 min 65% mobile phase A and 35% mobile phase B, 1.0-1.1 minutes with 35%-75% mobile phase B, 65%-25% mobile phase A, at 1.1 min 25% mobile phase A and 75% mobile phase B with a total run time of 1.5 minutes.

[3] = test system: HCT116 MTAP+/+; experiment: Inhibition of cellular proliferation (Cell Titer Glo), HCT116 MTAP+/+; type: cell-based, human; conditions: Homo sapiens, HCT-116, 96 h, 4 days, IC50 score, read-out: 4 Day Relative Growth Inhibition (MTAP +/+; Example 277)
Method: (§1) Test compound impact on cancer cell growth was assessed by treating cancer cells with compound for 4 days and then measuring proliferation using an ATP-based cell proliferation readout (Cell Titer Glo, Promega Corporation).
(§2) In a typical assay an isogenic pair of HCT116 human colon carcinoma cell lines which vary only in MTAP deletion status (HCT116 MTAP+/+ and HCT116 MTAP−/−) were plated in 96-well dishes at appropriate cell density. Following 24 hours, cells were then treated with the candidate MAT2A inhibitor. Prior to addition to cells, the compound was first serially diluted in 100% DMSO, typically as a 3-fold serial dilution starting at 500× top dose with 10 dose points including DMSO only control. Compound was then transferred to a working stock plate in cell culture media by adding 5 μl of compound in DMSO to 495 μl of cell culture media. This working stock was then added to cells via a further 5-fold dilution, by adding 25 μl of working stock to 100 μl of cells in culture media. Following compound addition, cells were incubated at 37° C./5% C02 for 4 days.
(§3) To measure inhibition of cellular proliferation, cells were allowed to equilibrate to room temperature for 30 minutes, and were then treated with 125 μl of Cell Titer Glo reagent. The plate was then covered with aluminum foil and shaken for 15 minutes to ensure complete mixing and full cell lysis. Luminescent signal was then measured using a plate-based luminometer Veritas version 1.9.2 using ATP standard curve to confirm assay reproducibility from run to run. This luminescence measure was converted to a proliferation index by subtracting from each data point the ATP luminescence signal measured from a bank (no cells) well and dividing by the ATP luminescence signal measured in 0.2% DMSO control well adjusted for signal in blank well. Compound activity was then represented as a percentage change in proliferation relative to a within-plate DMSO control against log10 of compound concentration in molar (M) units.

[4] = test system: HCT116 MTAP−/−; experiment: Inhibition of cellular proliferation (Cell Titer Glo), HCT116 MTAP−/−; type: cell-based, human; conditions: Homo sapiens, HCT-116, 96 h, 4 days, IC50 score, read-out: 4 Day Relative Growth Inhibition (MTAP −/−; Example 277)
Method: as §1, §2, §3

T1 sequence (P31153 whole entry): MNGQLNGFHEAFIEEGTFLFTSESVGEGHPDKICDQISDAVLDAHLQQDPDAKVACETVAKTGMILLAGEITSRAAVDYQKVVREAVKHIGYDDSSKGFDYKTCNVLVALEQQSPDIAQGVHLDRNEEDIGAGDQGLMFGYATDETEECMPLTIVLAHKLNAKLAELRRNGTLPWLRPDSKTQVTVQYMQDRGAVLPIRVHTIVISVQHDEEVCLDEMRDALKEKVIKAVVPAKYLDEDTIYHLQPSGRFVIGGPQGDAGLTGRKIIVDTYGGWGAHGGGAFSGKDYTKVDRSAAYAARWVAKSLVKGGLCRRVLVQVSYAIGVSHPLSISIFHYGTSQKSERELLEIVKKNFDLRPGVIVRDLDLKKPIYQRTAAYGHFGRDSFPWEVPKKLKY

| IC50 [1] [nM] | IC50 [2] [nM] | IC50 [3] [nM] | IC50 [4] [nM] | SMILES |
| --- | --- | --- | --- | --- |
| < 100 | < 100 | 100 to 10000 | < 100 | CCOc1ccc2cn(-c3ccc4nccnc4c3)c(=O)c(-c3ccc(Cl)cc3)c2n1 [Example 244, 8-(4-chlorophenyl)-2-ethoxy-6-(quinoxalin-6-yl)-1,6-naphthyridin-7(6H)-one] |
| < 100 | < 100 | 100 to 10000 | 100 to 10000 | CCOc1ccc2cn(-c3ccc4nn(C(C)C)cc4c3)c(=O)c(-c3ccc(Cl)cc3)c2n1 [Example 104-A] |
| < 100 | < 100 | > 10000 | < 100 | CCOc1cnc2cn(-c3ccc4nn(C)cc4c3)c(=O)c(-c3ccc(Cl)cc3)c2n1 [Example 147-A] |
| < 100 | 100 to 1000 | 100 to 10000 | 100 to 10000 | CCOc1ccc2cn(-c3ccc4ncncc4c3)c(=O)c(-c3ccc(Cl)cc3)c2n1 [Example 246, 8-(4-chlorophenyl)-2-ethoxy-6-(quinazolin-6-yl)-1,6-naphthyridin-7(6H)-one] |
| < 100 | < 100 | > 10000 | 100 to 10000 | CCOc1ccc2cn(-c3ccc4nn(C)cc4c3)c(=O)c(-c3ccc(C4CC4)nc3)c2n1 [Example 221, 8-(6-cyclopropylpyridin-3-yl)-2-ethoxy-6-(2-methyl-2H-indazol-5-yl)-1,6-naphthyridin-7(6H)-one] |
| < 100 | < 100 | > 10000 | < 100 | Cn1cc2cc(-n3cc4ccc(OC5CC5)nc4c(-c4ccc(Cl)cc4)c3=O)ccc2n1 [Example 210, 8-(4-chlorophenyl)-2-cyclopropoxy-6-(2-methyl-2H-indazol-5-yl)-1,6-naphthyridin-7(6H)-one] |
| < 100 | < 100 | > 10000 | < 100 | Cn1cnc2ccc(-n3cc4ccc(OCC(F)(F)F)nc4c(-c4ccc(Cl)cc4)c3=O)cc21 [Example 255, 8-(4-chlorophenyl)-6-(1-methyl-1H-benzo[d]imidazol-6-yl)-2-(2,2,2-trifluoroethoxy)-1,6-naphthyridin-7(6H)-one] |
| < 100 | < 100 | 100 to 10000 | < 100 | CCOc1ccc2cn(-c3ccc4nn(CCS(C)(=O)=O)cc4c3)c(=O)c(-c3ccc(OC(F)F)cc3)c2n1 [Example 108-A] |
| < 100 | < 100 | 100 to 10000 | < 100 | CCOc1ccc2cn(-c3ccc4nn(C)cc4c3)c(=O)c(-c3ccc(OC(F)F)nc3)c2n1 [Example 218, 8-(6-(difluoromethoxy)pyridin-3-yl)-2-ethoxy-6-(2-methyl-2H-indazol-5-yl)-1,6-naphthyridin-7(6H)-one] |

Second part, the compound before the results:

| SMILES | IC50 [1] [nM] | IC50 [2] [nM] | IC50 [3] [nM] | IC50 [4] [nM] |
| --- | --- | --- | --- | --- |
| CCOc1ccc2cn(-c3ccc4ncn(C)c4c3)c(=O)c(-c3ccc(C)nc3)c2n1 [Example 132-A] | < 100 | < 100 | 100 to 10000 | < 100 |
| CCOc1cnc2cn(-c3ccc4nn(C)cc4c3)c(=O)c(-c3ccc(OC)cc3)c2n1 [Example 140-A] | < 100 | < 100 | > 10000 | < 100 |
| O=c1c(-c2ccc(-c3nc[nH]n3)cc2)c2nc(OCC(F)(F)F)ncc2cn1-c1ccc2ncccc2c1 [Example 268, 8-(4-(H-1,2,4-triazol-3-yl)phenyl)-6-(quinolin-6-yl)-2-(2,2,2-trifluoroethoxy)pyrido[4,3-d]pyrimidin-7(6H)-one] | < 100 | 100 to 1000 | > 10000 | 100 to 10000 |
| Cn1cc2cc(-n3cc4cnc(OCC(F)(F)F)nc4c(-c4ccc(Cl)cc4)c3=O)ccc2n1 [Example 262, 8-(4-chlorophenyl)-6-(2-methyl-2H-indazol-5-yl)-2-(2,2,2-trifluoroethoxy)pyrido[4,3-d]pyrimidin-7(6H)-one] | < 100 | < 100 | > 10000 | 100 to 10000 |
| Cn1cc2cc(-n3cc4ccc(OCC(F)(F)F)nc4c(-c4ccc(C(F)F)nc4)c3=O)ccc2n1 [Example 118-A] | < 100 | < 100 | 100 to 10000 | < 100 |
| Cn1cnc2ccc(-n3cc4ccc(OCC(F)(F)F)nc4c(-c4ccc(OC(F)(F)F)nc4)c3=O)cc21 [Example 112-A] | < 100 | < 100 | 100 to 10000 | < 100 |
| COc1ccc(-c2c(=O)n(-c3ccc4c(c3)CCO4)cc3cnc(NCC(F)(F)F)nc23)cc1 [Example 147, 6-(2,3-dihydrobenzofuran-5-yl)-8-(4-methoxyphenyl)-2-((2,2,2-trifluoroethyl)amino)pyrido[4,3-d]pyrimidin-7(6H)-one] | < 100 | 100 to 1000 | > 10000 | 100 to 10000 |
| Cn1cc2cc(-n3cc4ccc(OCC(F)(F)F)nc4c(-c4ccc(C5CC5)nc4)c3=O)ccc2n1 [Example 113-A] | < 100 | < 100 | 100 to 10000 | < 100 |
| COc1ccc(-n2cc3cnc(NCC(F)(F)F)nc3c(-c3ccc(Br)cc3)c2=O)cc1 [Example 192, 8-(4-bromophenyl)-6-(4-methoxyphenyl)-2-((2,2,2-trifluoroethyl)amino)pyrido[4,3-d]pyrimidin-7(6H)-one] | < 100 | < 100 | > 10000 | 100 to 10000 |
| O=c1c(-c2ccc(Cl)cc2)c2nc(NCC(F)(F)F)ncc2cn1-c1ccc2c(c1)CCO2 [Example 133, 8-(4-chlorophenyl)-6-(2,3-dihydrobenzofuran-5-yl)-2-(2,2,2-trifluoroethylamino)pyrido[4,3-d]pyrimidin-7(6H)-one] | < 100 | < 100 | > 10000 | < 100 |
| Cn1cnc2ccc(-n3cc4ccc(NCC(F)(F)F)nc4c(-c4ccc(OC(F)F)cc4)c3=O)cc21 [Example 240, 8-(4-(difluoromethoxy)phenyl)-6-(1-methyl-1H-benzo[d]imidazol-6-yl)-2-(2,2,2-trifluoroethylamino)-1,6-naphthyridin-7(6H)-one] | < 100 | < 100 | > 10000 | < 100 |

Reference: US11524960B2, “Heterobicyclic inhibitors of MAT2A and methods of use for treating cancer” (AGIOS PHARMACEUTICALS, INC., priority 2018, dated 2022)
